Reference: PubChem BioAssay AID1745844 (Carcinogenic Potency Database (CPDB), 2022)

Test system: rodent lifetime carcinogenesis bioassay, tumor incidence TD50
Assay: carcinogenic potency in animals, long-term in vivo studies, CPDB compilation (AID 1745844)
Details: rat, strain Fischer 344, in drinking water, study length 97 weeks

COc1cc(-c2ccc(N=Nc3c(S(=O)(=O)O)cc4cc(S(=O)(=O)O)cc(N)c4c3O)c(OC)c2)ccc1N=Nc1c(S(=O)(=O)O)cc2cc(S(=O)(=O)O)cc(N)c2c1O
TD50 (females, site: Zymbal's gland, lesion: adenoma + carcinoma, dosed 96 weeks): 104 mg/kg/day | TD50 (females, site: Zymbal's gland, lesion: adenoma, dosed 96 weeks): 321 mg/kg/day | TD50 (females, site: Zymbal's gland, lesion: carcinoma, dosed 96 weeks): 150 mg/kg/day | TD50 (females, site: any site (literature study), lesion: several types, types named in the paper, dosed 96 weeks): 20.4 mg/kg/day | TD50 (females, site: clitoral gland, lesion: adenoma + adenoma, bilateral + carcinoma + carcinoma, bilateral, dosed 96 weeks): 46.2 mg/kg/day | TD50 (females, site: clitoral gland, lesion: adenoma + adenoma, bilateral, dosed 96 weeks): 90.1 mg/kg/day | TD50 (females, site: clitoral gland, lesion: carcinoma + carcinoma, bilateral, dosed 96 weeks): 107 mg/kg/day | TD50 (females, site: colon, ascending + clitoral gland + colon + colon, descending + duodenum + jejunum + liver + multiple organs + palate + skin + tongue + uterus, lesion: adenomatous polyp + adenoma + adenoma, bilateral + carcinoma + carcinoma, bilateral + mucinous cystadenocarcinoma + adenocarcinoma + h, dosed 96 weeks): 21.3 mg/kg/day | TD50 (females, site: colon, ascending + colon + colon, descending, lesion: adenomatous polyp, dosed 96 weeks): 491 mg/kg/day | TD50 (females, site: duodenum + jejunum, lesion: mucinous cystadenocarcinoma + adenocarcinoma, dosed 96 weeks): 997 mg/kg/day | TD50 (females, site: jejunum, lesion: adenocarcinoma + mucinous cystadenocarcinoma, dosed 96 weeks): 1180 mg/kg/day | TD50 (females, site: liver, lesion: hepatocellular adenoma + hepatocellular carcinoma + neoplastic nodule, dosed 96 weeks): 394 mg/kg/day | TD50 (females, site: liver, lesion: hepatocellular carcinoma + neoplastic nodule, dosed 96 weeks): 394 mg/kg/day | TD50 (females, site: liver, lesion: neoplastic nodule, dosed 96 weeks): 429 mg/kg/day | TD50 (females, site: multiple organs, lesion: mononuclear-cell leukemia, dosed 96 weeks): 50 mg/kg/day | TD50 (females, site: palate + tongue, lesion: squamous-cell carcinoma + squamous-cell papilloma, dosed 96 weeks): 81 mg/kg/day | TD50 (females, site: palate + tongue, lesion: squamous-cell carcinoma, dosed 96 weeks): 208 mg/kg/day | TD50 (females, site: palate + tongue, lesion: squamous-cell papilloma, dosed 96 weeks): 132 mg/kg/day | TD50 (females, site: palate, lesion: squamous-cell carcinoma, dosed 96 weeks): 456 mg/kg/day | TD50 (females, site: palate, lesion: squamous-cell papilloma, dosed 96 weeks): 157 mg/kg/day | TD50 (females, site: skin, lesion: squamous-cell carcinoma + squamous-cell papilloma, dosed 96 weeks): 158 mg/kg/day | TD50 (females, site: skin, lesion: squamous-cell papilloma, dosed 96 weeks): 174 mg/kg/day | TD50 (females, site: tongue, lesion: squamous-cell carcinoma + squamous-cell papilloma, dosed 96 weeks): 238 mg/kg/day | TD50 (females, site: tongue, lesion: squamous-cell carcinoma, dosed 96 weeks): 384 mg/kg/day | TD50 (females, site: uterus, lesion: adenocarcinoma + adenoma, dosed 96 weeks): 493 mg/kg/day | TD50 (females, site: uterus, lesion: endometrial stromal polyp + endometrial stromal sarcoma, dosed 96 weeks): 122 mg/kg/day | TD50 (females, site: uterus, lesion: endometrial stromal polyp, dosed 96 weeks): 132 mg/kg/day | TD50 (males, site: Zymbal's gland, lesion: adenoma + carcinoma, dosed 97 weeks): 89.2 mg/kg/day | TD50 (males, site: Zymbal's gland, lesion: adenoma, dosed 97 weeks): 237 mg/kg/day | TD50 (males, site: Zymbal's gland, lesion: carcinoma, dosed 97 weeks): 132 mg/kg/day | TD50 (males, site: adrenal medulla, lesion: pheochromocytoma benign, bilateral + pheochromocytoma, benign, dosed 97 weeks): 39.8 mg/kg/day | TD50 (males, site: adrenal medulla, lesion: pheochromocytoma benign, bilateral + pheochromocytoma, complex + pheochromocytoma, malignant + pheochromocytoma, benign, dosed 97 weeks): 36.6 mg/kg/day | TD50 (males, site: any site (literature study), lesion: several types, types named in the paper, dosed 97 weeks): 12 mg/kg/day | TD50 (males, site: brain, medulla + cerebrum, lesion: astrocytoma, malignant, dosed 97 weeks): 600 mg/kg/day | TD50 (males, site: colon, ascending + colon + colon, descending + jejunum + liver + palate + pharynx + preputial gland + skin + tongue + Zymbal's gland, lesion: adenomatous polyp + adenocarcinoma + mucinous cystadenocarcinoma + hepatocellular carcinoma + neoplastic nodule + squamous-cell pa, dosed 97 weeks): 11.8 mg/kg/day | TD50 (males, site: colon, ascending + colon + colon, descending, lesion: adenomatous polyp + adenocarcinoma, dosed 97 weeks): 162 mg/kg/day | TD50 (males, site: colon, ascending + colon + colon, descending, lesion: adenomatous polyp, dosed 97 weeks): 310 mg/kg/day | TD50 (males, site: colon, lesion: adenocarcinoma, dosed 97 weeks): 355 mg/kg/day | TD50 (males, site: jejunum, lesion: adenocarcinoma + adenomatous polyp + mucinous cystadenocarcinoma, dosed 97 weeks): 1630 mg/kg/day | TD50 (males, site: liver, lesion: hepatocellular adenoma + hepatocellular carcinoma + neoplastic nodule, dosed 97 weeks): 55.2 mg/kg/day | TD50 (males, site: liver, lesion: hepatocellular carcinoma + neoplastic nodule, dosed 97 weeks): 55.2 mg/kg/day | TD50 (males, site: liver, lesion: hepatocellular carcinoma, dosed 97 weeks): 375 mg/kg/day | TD50 (males, site: liver, lesion: neoplastic nodule, dosed 97 weeks): 65.3 mg/kg/day | TD50 (males, site: multiple organs, lesion: mononuclear-cell leukemia, dosed 97 weeks): 23 mg/kg/day | TD50 (males, site: palate + pharynx + tongue, lesion: squamous-cell papilloma + squamous-cell carcinoma, dosed 97 weeks): 39.3 mg/kg/day | TD50 (males, site: palate + tongue, lesion: squamous-cell papilloma, dosed 97 weeks): 43.6 mg/kg/day | TD50 (males, site: palate, lesion: squamous-cell papilloma, dosed 97 weeks): 47 mg/kg/day | TD50 (males, site: pharynx + tongue, lesion: squamous-cell carcinoma, dosed 97 weeks): 361 mg/kg/day | TD50 (males, site: pharynx, lesion: squamous-cell carcinoma, dosed 97 weeks): 466 mg/kg/day | TD50 (males, site: preputial gland, lesion: adenoma + adenoma, bilateral + carcinoma + carcinoma, bilateral, dosed 97 weeks): 55.3 mg/kg/day | TD50 (males, site: preputial gland, lesion: adenoma + adenoma, bilateral, dosed 97 weeks): 77.1 mg/kg/day | TD50 (males, site: preputial gland, lesion: carcinoma + carcinoma, bilateral, dosed 97 weeks): 207 mg/kg/day | TD50 (males, site: skin, lesion: basal-cell adenoma + basal-cell carcinoma + sebaceous adenoma, dosed 97 weeks): 18.1 mg/kg/day | TD50 (males, site: skin, lesion: basal-cell adenoma + basal-cell carcinoma, dosed 97 weeks): 19.6 mg/kg/day | TD50 (males, site: skin, lesion: basal-cell adenoma, dosed 97 weeks): 21.6 mg/kg/day | TD50 (males, site: skin, lesion: basal-cell carcinoma, dosed 97 weeks): 101 mg/kg/day | TD50 (males, site: skin, lesion: keratoacanthoma, dosed 97 weeks): 152 mg/kg/day | TD50 (males, site: skin, lesion: sebaceous adenoma, dosed 97 weeks): 108 mg/kg/day | TD50 (males, site: skin, lesion: squamous-cell carcinoma + squamous-cell papilloma, dosed 97 weeks): 51 mg/kg/day | TD50 (males, site: skin, lesion: squamous-cell carcinoma, dosed 97 weeks): 89.7 mg/kg/day | TD50 (males, site: skin, lesion: squamous-cell papilloma, dosed 97 weeks): 92.8 mg/kg/day | TD50 (males, site: subcutaneous tissue, lesion: fibroma + sarcoma, dosed 97 weeks): 131 mg/kg/day | TD50 (males, site: subcutaneous tissue, lesion: fibroma, dosed 97 weeks): 150 mg/kg/day | TD50 (males, site: testis, lesion: interstitial-cell adenoma, bilateral + interstitial-cell adenoma, dosed 97 weeks): 12.9 mg/kg/day | TD50 (males, site: thyroid gland, lesion: c-cell adenoma + c-cell adenoma, bilateral, dosed 97 weeks): 143 mg/kg/day | TD50 (males, site: thyroid gland, lesion: c-cell adenoma + c-cell carcinoma, bilateral + c-cell carcinoma + c-cell adenoma, bilateral, dosed 97 weeks): 116 mg/kg/day | TD50 (males, site: thyroid gland, lesion: follicular-cell adenoma + follicular-cell carcinoma, dosed 97 weeks): 103 mg/kg/day | TD50 (males, site: thyroid gland, lesion: follicular-cell adenoma, dosed 97 weeks): 49.7 mg/kg/day | TD50 (males, site: thyroid gland, lesion: follicular-cell carcinoma, dosed 97 weeks): 331 mg/kg/day | TD50 (males, site: tongue, lesion: squamous-cell carcinoma + squamous-cell papilloma, dosed 97 weeks): 371 mg/kg/day
